Structures can show the parent of a compound that is named as a salt.
Columns and labels:
Wistar rats = settings: 10 mg/kg, single gavage; low body weight in two rats given as main reason
Procedure: (§1) Eleven-week-old male SHR rats and Wistar rats (SiPeiFu (Suzhou) Biotechnology Co., Ltd., Suzhou, China) weighing 200–250 g were used. After 7 d of acclimatization feeding, SHR rats and Wistar rats were randomly grouped into 6 rats per group for a single gavage administration treatment. The undecapeptide and the commercial antihypertensive drug Benazepril hydrochloride were administered in a gavage dose of 10 mg/kg body weight (the recommended dose of Benazepril hydrochloride). SHR rats with regular saline treatment were used as the blank control group. The systolic blood pressure (SBP) and diastolic blood pressure (DBP) of rats were monitored by the Softron BP system (Softron BP-2010A, Tokyo, Japan) at 0, 2, 4, 6, 8, and 24 h after drug administration. At the end of the treatment, the organ coefficients were calculated (organ weight as a percentage of the body weight of the rat, mg/g).
(§2) Data from the in vivo tests were presented as means ± standard deviations of 6 measurements.

SHR rats [1] = experiment: Organ coefficients in SHR rats; assay type: in vivo, rat (SHR); settings: 10 mg/kg, single gavage
Procedure: as §1, §2

SHR rats [2] = experiment: Antihypertensive effect after single gavage in SHR rats; assay type: in vivo, rat (SHR); settings: n = 6
Procedure: as §1, §2

[3] = 10 mg/kg, most significant effect at 8 h, mean ± SD

Row | SMILES | Kidney organ coefficient, Wistar (Wistar rats) | Effect on organs, SHR (SHR rats [1]) | Heart organ coefficient vs blank control, SHR (SHR rats [1]; significance p < 0.05) | Blood pressure lowering (SBP and DBP), SHR (SHR rats [2]; 10 mg/kg, 2, 4, 6 and 8 h) | Decrease in DBP, SHR (SHR rats [2]; [3]) | Decrease in SBP, SHR (SHR rats [2]; [3]) | Rebound of blood pressure values, SHR (SHR rats [2]; 10 mg/kg) | Time of most significant blood pressure lowering effect, SHR (SHR rats [2]; 10 mg/kg)
1 | CC(C)C[C@H](NC(=O)[C@@H]1CCCN1C(=O)[C@H](CCCNC(=N)N)NC(=O)[C@H](CC(C)C)NC(=O)[C@H](CCCNC(=N)N)NC(=O)[C@H](CC(=O)O)NC(=O)[C@H](Cc1ccc(O)cc1)NC(=O)[C@H](CC(=O)O)NC(=O)[C@H](CCC(=O)O)NC(=O)[C@H](CCC(N)=O)NC(=O)CN)C(=O)O | considerably higher | less impact on the organs of SHR rats | no significant difference | – | – | – | – | –
2 | CCOC(=O)[C@H](CCc1ccccc1)N[C@H]1CCc2ccccc2N(CC(=O)O)C1=O [Benazepril hydrochloride] | – | – | – | better blood pressure lowering effects after 2, 4, 6, and 8 h | 39.17 ± 1.81 mmHg | 54.94 ± 1.79 mmHg | began to rebound after 8 h | 8 h

From article PMC10529921, “Structure–Activity Relationship of Novel ACE Inhibitory Undecapeptides from Stropharia rugosoannulata by Molecular Interactions and Activity Analyses” (Foods, 2023)
